Values quoted from earlier work in US11129554B2, “Sweat monitoring and control of drug delivery” (University Of Cincinnati, priority 2014, dated 2021).

Key:
[1] = dye clearance tests
[2] = in vivo

Compound	beta-blocking activity (beta-adrenoceptors)	further results
CC(CCc1ccccc1)NCC(O)c1ccc(O)c(C(N)=O)c1 [Labetalol (S, S) isomer, Labetalol]	relatively inactive	–
CC(C)NCC(O)c1ccc(NS(C)(=O)=O)cc1 [Sotalol L-isomer, Sotalol]	has beta-blocking activity	–
CC(CCc1ccccc1)NCC(O)c1ccc(O)c(C(N)=O)c1 [Labetalol (R, S) isomer, Labetalol]	relatively inactive	–
CC(CCc1ccccc1)NCC(O)c1ccc(O)c(C(N)=O)c1 [Labetalol (R, R) isomer, Labetalol]	potent beta-blocker	–
CC(CCc1ccccc1)NCC(O)c1ccc(O)c(C(N)=O)c1 [Labetalol (S, R) isomer, Labetalol]	–	alpha-blocking activity (alpha-blocking): potent alpha-blocker
COc1ccccc1OCCNCC(O)COc1cccc2[nH]c3ccccc3c12 (stereo not drawn) [Carvedilol S(−) isomer, Carvedilol]	nonselective beta-adrenoceptor blocker	alpha-blocking activity (alpha-blocking): approximately equally alpha-blocking potency
carboxyethyl-hydroxychroman [CEHC]	–	resolution of excretion in sweat [1]: 2 to 3 min
CC(C)NC[C@@H](O)COc1cccc2ccccc12 [d-propranolol]	inactive	–
OC(CNCC(O)C1CCc2cc(F)ccc2O1)C1CCc2cc(F)ccc2O1 (stereo not shown) [Nebivolol]	highly selectively beta-1-blocking effects	–
CC(C)NC[C@H](O)COc1cccc2ccccc12 [1-Propranolol]	has beta-adrenoceptors blocking action	–
COc1ccc2c(c1)[C@]13CCCC[C@@H]1[C@H](C2)N(C)CC3 [DM, Dextromethorphan]	–	half-life [2]: 2 to 4 h
CC(C)NCC(O)c1ccc(NS(C)(=O)=O)cc1 [Sotalol D-isomer, Sotalol]	no beta-blocking activity	–
CN1C(=O)CC[C@H]1c1cccnc1 [cotinine]	–	half-life [2]: about 20 hours
COc1ccccc1OCCNCC(O)COc1cccc2[nH]c3ccccc3c12 (single isomer, unassigned) [Carvedilol R(+) isomer, Carvedilol]	–	alpha-blocking activity (alpha-blocking): approximately equally alpha-blocking potency
S-Timolol	–	alpha-blocking activity (alpha-blocking): more a potent alpha-blocker than R-timolol
